From ChEMBL document CHEMBL5252515, “Discovery of 6-Amino-2-{[(1S)-1-methylbutyl]oxy}-9-[5-(1-piperidinyl)pentyl]-7,9-dihydro-8H-purin-8-one (GSK2245035), a Highly Potent and Selective Intranasal Toll-Like Receptor 7 Agonist for the Treatment of Asthma” (J Med Chem, 2016)
The source made the active and inactive calls. The calls are words filed in the database; no cut-off is given here.

Key:
Toll-like receptor 7 = biological target: T1, Toll-like receptor 7 (Homo sapiens, UniProt Q9NYK1); test: Agonist activity at TLR7 in human PBMC assessed as IFN-alpha production after 24 hrs by electrochemiluminescence assay; type: cell-based
T1 sequence (Q9NYK1 whole entry): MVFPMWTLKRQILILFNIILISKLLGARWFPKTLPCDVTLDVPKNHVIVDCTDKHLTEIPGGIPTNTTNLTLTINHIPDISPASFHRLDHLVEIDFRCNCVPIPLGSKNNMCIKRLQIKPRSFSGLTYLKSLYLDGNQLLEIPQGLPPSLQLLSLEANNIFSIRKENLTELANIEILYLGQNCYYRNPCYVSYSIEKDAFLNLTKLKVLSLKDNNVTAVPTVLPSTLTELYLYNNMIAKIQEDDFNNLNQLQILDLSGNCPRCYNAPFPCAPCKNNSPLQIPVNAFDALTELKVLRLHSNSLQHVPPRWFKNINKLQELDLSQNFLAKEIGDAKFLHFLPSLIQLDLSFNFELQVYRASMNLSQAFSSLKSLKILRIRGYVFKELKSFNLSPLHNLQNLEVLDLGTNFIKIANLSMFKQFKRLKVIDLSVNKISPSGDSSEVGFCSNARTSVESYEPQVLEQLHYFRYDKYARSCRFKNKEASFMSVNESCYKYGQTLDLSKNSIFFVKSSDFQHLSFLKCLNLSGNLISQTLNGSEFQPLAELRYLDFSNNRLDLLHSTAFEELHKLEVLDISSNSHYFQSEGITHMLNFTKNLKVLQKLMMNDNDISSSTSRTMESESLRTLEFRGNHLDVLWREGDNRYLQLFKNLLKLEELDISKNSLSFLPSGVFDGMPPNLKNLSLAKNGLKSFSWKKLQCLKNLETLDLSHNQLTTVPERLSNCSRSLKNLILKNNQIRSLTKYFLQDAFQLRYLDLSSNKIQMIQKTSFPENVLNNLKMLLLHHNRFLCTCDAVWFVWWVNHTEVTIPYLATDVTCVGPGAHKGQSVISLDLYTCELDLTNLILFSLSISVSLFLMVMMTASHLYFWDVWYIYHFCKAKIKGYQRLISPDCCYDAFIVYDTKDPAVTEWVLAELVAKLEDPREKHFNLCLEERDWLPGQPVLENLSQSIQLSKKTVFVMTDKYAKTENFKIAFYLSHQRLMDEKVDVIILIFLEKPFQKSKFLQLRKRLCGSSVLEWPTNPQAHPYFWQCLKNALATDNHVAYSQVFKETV

Mus musculus [1] = test: Increase in IFN-alpha level in BALB/c mouse serum at 0.3 mg/kg, administered intranasally after 2 hrs by ELISA; type: functional, organism-based
Mus musculus [2] = test: Increase in IFN-alpha level in BALB/c mouse serum at 0.3 mg/kg, administered intranasally after 6 hrs by ELISA; type: functional, organism-based
Mus musculus [3] = test: Increase in IP-10 level in intranasally dosed BALB/c mouse nasal lavage after 6 hrs; type: functional, organism-based
[4] = biological target: T2, Toll-like receptor 7 (Macaca fascicularis) (UniProt B3Y652); test: In vivo target occupancy at TLR7 in cynomolgus monkey assessed as fold increase in CCL8 mRNA expression in nasal scrape at 3 ng/kg administered intranasally incubated for 24 hrs by TaqMan analysis (reference value: 1); type: functional
T2 sequence (whole entry): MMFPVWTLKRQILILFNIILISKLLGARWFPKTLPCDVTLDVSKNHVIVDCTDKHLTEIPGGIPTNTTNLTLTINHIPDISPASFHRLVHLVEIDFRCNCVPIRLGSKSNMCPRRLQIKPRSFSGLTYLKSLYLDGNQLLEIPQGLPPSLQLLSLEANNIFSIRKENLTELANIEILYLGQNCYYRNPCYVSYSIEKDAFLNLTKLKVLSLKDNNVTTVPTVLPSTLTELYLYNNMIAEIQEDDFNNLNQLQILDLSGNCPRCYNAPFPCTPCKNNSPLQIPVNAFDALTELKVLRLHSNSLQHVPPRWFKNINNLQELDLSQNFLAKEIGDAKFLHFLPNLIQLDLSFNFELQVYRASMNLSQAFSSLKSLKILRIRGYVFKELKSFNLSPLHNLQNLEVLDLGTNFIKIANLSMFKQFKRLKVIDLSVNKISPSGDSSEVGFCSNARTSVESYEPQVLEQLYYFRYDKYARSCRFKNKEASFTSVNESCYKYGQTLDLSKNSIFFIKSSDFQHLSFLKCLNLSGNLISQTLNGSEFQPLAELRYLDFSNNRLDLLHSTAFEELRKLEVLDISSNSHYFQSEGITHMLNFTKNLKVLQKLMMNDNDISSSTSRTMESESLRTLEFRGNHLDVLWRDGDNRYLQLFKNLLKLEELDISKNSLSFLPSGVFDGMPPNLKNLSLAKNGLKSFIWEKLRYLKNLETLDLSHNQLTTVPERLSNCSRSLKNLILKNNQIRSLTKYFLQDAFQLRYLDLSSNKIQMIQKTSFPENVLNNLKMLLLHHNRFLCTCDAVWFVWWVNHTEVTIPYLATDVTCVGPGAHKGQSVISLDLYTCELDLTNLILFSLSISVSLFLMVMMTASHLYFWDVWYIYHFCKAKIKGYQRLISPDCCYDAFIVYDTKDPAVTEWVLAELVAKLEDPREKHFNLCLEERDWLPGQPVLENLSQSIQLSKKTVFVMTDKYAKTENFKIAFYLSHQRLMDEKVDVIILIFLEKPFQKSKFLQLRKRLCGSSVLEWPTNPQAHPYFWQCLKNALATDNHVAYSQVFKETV

[5] = biological target: T2, Toll-like receptor 7 (Macaca fascicularis); test: In vivo target occupancy at TLR7 in cynomolgus monkey assessed as fold increase in IFIT2 mRNA expression in nasal scrape at 30 ng/kg administered intranasally incubated for 24 hrs by TaqMan analysis (reference value: 2.1); type: functional
[6] = biological target: T2, Toll-like receptor 7 (Macaca fascicularis); test: In vivo target occupancy at TLR7 in cynomolgus monkey assessed as fold increase in OAS2 mRNA expression in nasal scrape at 30 ng/kg administered intranasally incubated for 24 hrs by TaqMan analysis (reference value: 1); type: functional
[7] = biological target: T2, Toll-like receptor 7 (Macaca fascicularis); test: In vivo target occupancy at TLR7 in cynomolgus monkey assessed as fold increase in OAS3 mRNA expression in nasal scrape at 30 ng/kg administered intranasally incubated for 24 hrs by TaqMan analysis (reference value: 0.9); type: functional
[8] = Systemic clearance in mouse; type: ADME, organism-based; settings: in vivo
[9] = Systemic clearance in rat; type: ADME; settings: in vivo
[10] = Bioavailability in mouse after intranasal administration; type: ADME, organism-based; settings: in vivo, inhaled or intranasal
[11] = Tmax in cynomolgus monkey after intranasal administration; type: ADME, Macaca fascicularis; settings: in vivo, inhaled or intranasal
[12] = Toxicity in female rat assessed as NOAEL after 14 days; settings: in vivo, time 14 day
[13] = Toxicity in male rat assessed as NOAEL after 8 weeks; settings: in vivo
[14] = Ocular toxicity in monkey at 10 ug/ml; parameters: species or system Macaca mulatta; settings: rhesus monkey, in vivo; dose 10 µg/ml
[15] = biological target: Toll-like receptor 3 (Homo sapiens) (UniProt O15455); test: Agonist activity at TLR3 (unknown origin) expressed in HEK cells upto 50 uM by luciferase reporter assay; type: cell-based
Chain of Toll-like receptor 3 (Homo sapiens) (O15455 whole entry): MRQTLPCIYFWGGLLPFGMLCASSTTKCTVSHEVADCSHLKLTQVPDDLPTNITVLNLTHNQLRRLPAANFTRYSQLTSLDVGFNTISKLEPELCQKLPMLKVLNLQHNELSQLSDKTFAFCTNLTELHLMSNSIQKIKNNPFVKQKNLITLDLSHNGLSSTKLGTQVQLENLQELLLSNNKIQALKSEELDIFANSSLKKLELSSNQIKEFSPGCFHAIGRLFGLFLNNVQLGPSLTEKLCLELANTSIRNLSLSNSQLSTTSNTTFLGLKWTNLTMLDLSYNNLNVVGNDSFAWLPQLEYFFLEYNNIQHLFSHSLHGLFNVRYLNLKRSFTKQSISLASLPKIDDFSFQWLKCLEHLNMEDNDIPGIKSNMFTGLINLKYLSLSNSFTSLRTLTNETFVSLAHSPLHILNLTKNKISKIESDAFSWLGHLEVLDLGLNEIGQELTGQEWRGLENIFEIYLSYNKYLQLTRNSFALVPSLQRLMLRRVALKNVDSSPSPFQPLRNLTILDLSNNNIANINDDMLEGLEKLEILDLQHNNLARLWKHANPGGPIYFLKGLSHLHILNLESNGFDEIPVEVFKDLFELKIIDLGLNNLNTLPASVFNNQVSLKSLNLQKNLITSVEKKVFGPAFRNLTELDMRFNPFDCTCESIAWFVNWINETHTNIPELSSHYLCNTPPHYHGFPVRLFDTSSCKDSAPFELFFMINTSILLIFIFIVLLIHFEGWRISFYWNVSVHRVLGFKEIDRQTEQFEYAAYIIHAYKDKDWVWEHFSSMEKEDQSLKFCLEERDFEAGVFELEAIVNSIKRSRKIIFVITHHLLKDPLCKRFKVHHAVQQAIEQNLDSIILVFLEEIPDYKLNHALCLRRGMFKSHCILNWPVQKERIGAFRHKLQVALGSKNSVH

PBMC = test: Immunomodulatory activity in human PBMC assessed as IFNalpha production incubated for 6 days in presence of allergen house dust mite; type: functional, cell-based; settings: time 6.0 day

Q: Which results are given for CCC[C@H](C)Oc1nc(N)c2[nH]c(=O)n(CCCCCN3CCCCC3)c2n1 [GSK-2245035]?
A: EC50 (Toll-like receptor 7): 7.94 nM; Activity (Mus musculus [1]): Active; Activity (Mus musculus [2]): inactive; Activity (Mus musculus [3]): Active; fold change (FC) [4]: 3970; fold change (FC) [5]: 124; fold change (FC) [6]: 180; fold change (FC) [7]: 101; clearance [8]: 107 mL/min/kg; clearance [9]: 96 mL/min/kg; bioavailability [10]: 42%; Tmax [11]: ≤ 5 min; NOAEL at 336 h [12]: 0.772 mg/kg/day; NOAEL at 1344 h [13]: 0.406 mg/kg; Activity [14]: Non-Toxic; Activity [15]: inactive; Activity (PBMC): Active
